Measured values as given in patent US20260035367A1 (Celgene Corporation, priority 2021, published 2026).
Read-outs that look alike come from different tables or passages of the source.

Tests used:
[1] = biological target: T1, Recombinant human PKC-delta (His-tagged 345-676) (Homo sapiens, UniProt Q05655); test: PKC-delta inhibition assay (HTRF KinEASE kit); format: biochemical; conditions: ratio, PKC-theta vs PKC-delta HTRF; for PKC-theta/PKC-delta selectivity (binned): binned A to G
T1 construct: PKC-delta (His-tagged 345-676); His
T1 sequence (Q05655 345-676): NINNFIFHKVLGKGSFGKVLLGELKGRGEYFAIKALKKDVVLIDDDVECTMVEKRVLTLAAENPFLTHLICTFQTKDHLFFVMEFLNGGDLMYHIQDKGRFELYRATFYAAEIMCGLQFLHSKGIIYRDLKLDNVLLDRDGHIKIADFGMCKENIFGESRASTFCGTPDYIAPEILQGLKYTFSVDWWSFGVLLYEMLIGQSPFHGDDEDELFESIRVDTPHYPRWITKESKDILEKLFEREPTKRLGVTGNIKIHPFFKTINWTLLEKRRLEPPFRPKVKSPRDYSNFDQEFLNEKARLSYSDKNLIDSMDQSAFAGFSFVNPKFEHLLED

[2] = system: IL-2 secretion by human effector memory T cells (TEM); test: Effector memory T cells IL-2 release assay (CD3/CD28 stimulation, HTRF IL-2 detection); format: cell-based; conditions: Homo sapiens, T-cell, 24 h
Summary of the method: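 Human effector memory T cells from healthy-donor buffy coats were exposed in triplicate to ten semi-log doses of compound in 0.1% DMSO. The cells were stimulated and incubated 24 h at 37 °C. Secreted IL-2 in the supernatant was measured by HTRF.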

[3] = biological target: T2, Recombinant human PKC-theta (His-tagged 362-706) (Homo sapiens, UniProt Q04759); test: PKC-theta inhibition assay (HTRF KinEASE kit); format: biochemical; conditions: ATP 6.5 μM, STK substrate 525 nM
T2 construct: Recombinant human PKC-theta (His-tagged 362-706); His
T2 sequence (Q04759 362-706): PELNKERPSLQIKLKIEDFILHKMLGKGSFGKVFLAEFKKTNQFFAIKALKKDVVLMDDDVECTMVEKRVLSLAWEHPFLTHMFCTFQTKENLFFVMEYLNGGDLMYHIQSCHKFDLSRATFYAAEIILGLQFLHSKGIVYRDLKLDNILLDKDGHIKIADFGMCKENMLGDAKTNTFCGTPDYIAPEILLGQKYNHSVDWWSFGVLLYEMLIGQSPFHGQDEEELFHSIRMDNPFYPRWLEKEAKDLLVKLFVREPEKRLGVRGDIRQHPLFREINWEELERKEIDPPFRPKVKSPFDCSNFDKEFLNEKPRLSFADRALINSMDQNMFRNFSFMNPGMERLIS
Summary of the method: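 IC50 values were from 4-parameter logistic fits of percent inhibition, based on acceptor/donor HTRF ratios over 10 semi-log compound doses. Kinase reactions, started with substrate plus ATP, ran 30 min at 25 °C in buffer supplemented with 10 mM MgCl2, 1 mM DTT and 0.1% Tween 20; detection lasted 2 h.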

[4] = binned A to G, read-out: PKC-theta IL2 pIC50 (binned) (converted)
[5] = read-out: PKC-theta IL2 pIC50 (converted)
[6] = binned A to H, read-out: PKC-theta HTRF pIC50 (binned) (converted)
[7] = read-out: PKC-theta HTRF pIC50 (converted)

SMILES | PKC-theta/PKC-delta selectivity [1] | PKC-theta/PKC-delta selectivity (binned) [1] | IC50 [2, 4] | IC50 [2, 5] | IC50 [3, 6] | IC50 [3, 7]
C[C@@]1(O)C(=O)Nc2nccc(-c3cc(C(F)(F)F)cc(N4CC5CC(C4)N5)n3)c21 (single isomer, unassigned) [Example 149] | 15 | D (a ratio of between 10 and 20) | 316 to 1000 nM | 398 nM | 10 to 31.6 nM | 25.1 nM
C[C@@H]1CNC[C@H](C)N1c1cc(C(F)(F)F)cc(-c2ccnc3c2C(C)(C)C(=O)N3)n1 [Example 179] | 20 | D (a ratio of between 10 and 20) | 100 to 316 nM | 200 nM | 3.16 to 10 nM | 6.31 nM
CC1(C)C(=O)Nc2ncc(Cl)c(-c3cc(F)cc(N4CCNCC4)c3)c21 [Example 79] | 2 | F (a ratio of between 1 and 5) | 316 to 1000 nM | 794 nM | 31.6 to 100 nM | 39.8 nM
CC[C@@]1(O)C(=O)Nc2nccc(-c3cc(C(F)(F)F)cc(N4CCNC[C@H]4C)n3)c21 (single isomer, unassigned) [Example 166] | 6 | E (a ratio of between 5 and 10) | 10 to 31.6 nM | 31.6 nM | 1 to 3.16 nM | 3.16 nM
C[C@H]1CNCCN1c1cc(-c2ccnc3c2C(C)(C)C(=O)N3)ccn1 [Example 31] | 1 | F (a ratio of between 1 and 5) | > 1000 nM | 6310 nM | 316 to 1000 nM | 501 nM
CC[C@H]1CN(c2cc(Cl)cc(-c3ccnc4c3C(C)(C)C(=O)N4)n2)CCN1 [Example 145] | 25 | C (a ratio of between 20 and 30) | 10 to 31.6 nM | 15.8 nM | 0.316 to 1 nM | 0.794 nM
CC[C@H]1CN(c2ccc(Cl)c(-c3ccnc4c3C(O)(CC)C(=O)N4)n2)CCN1 (stereo partly drawn) [Example 132] | 4 | F (a ratio of between 1 and 5) | 316 to 1000 nM | 1000 nM | 100 to 316 nM | 100 nM
CC1(C)C(=O)Nc2nccc(-c3cc(C(F)(F)F)cc(N4CC5CC(C4)N5)n3)c21 [Example 150] | 13 | D (a ratio of between 10 and 20) | > 1000 nM | 1260 nM | 31.6 to 100 nM | 63.1 nM
COC1(C)C(=O)Nc2nccc(-c3cc(F)cc(N4CCNCC4)c3)c21 (stereo not drawn) [Example 57] | 6 | E (a ratio of between 5 and 10) | 316 to 1000 nM | 631 nM | 31.6 to 100 nM | 50.1 nM
CC1(O)C(=O)Nc2nccc(-c3cc(C(F)(F)F)cc(N4CCNCC4)n3)c21 (stereo not drawn) [Example 80] | 12 | D (a ratio of between 10 and 20) | 31.6 to 100 nM | 79.4 nM | 3.16 to 10 nM | 6.31 nM
CC[C@H]1CN(c2cccc(-c3ccnc4c3C(C)(C)C(=O)N4)c2)CCN1 [Example 51] | 3 | F (a ratio of between 1 and 5) | > 1000 nM | 1260 nM | 31.6 to 100 nM | 79.4 nM
C[C@@H](O)[C@H]1CN(c2cc(C(F)(F)F)cc(-c3ccnc4c3C(C)(C)C(=O)N4)n2)CCN1 [Example 116] | 10 | D (a ratio of between 10 and 20) | 100 to 316 nM | 126 nM | 3.16 to 10 nM | 5.01 nM
C[C@H]1CN(c2cc(Cl)cc(-c3ccnc4c3C(C)(O)C(=O)N4)c2)CCN1 (stereo partly drawn) [Example 75] | 11 | D (a ratio of between 10 and 20) | 100 to 316 nM | 158 nM | 3.16 to 10 nM | 7.94 nM
O=c1[nH]c2nccc(-c3cccc(N4CCNCC4)c3)c2o1 [Example 6] | 2 | F (a ratio of between 1 and 5) | > 1000 nM | 10000 nM | > 1000 nM | 1000 nM
C[C@@H]1CN(c2cc(C(F)(F)F)cc(-c3ccnc4c3C(C)(C)C(=O)N4)n2)[C@H](C)CN1 [Example 178] | 20 | D (a ratio of between 10 and 20) | 31.6 to 100 nM | 63.1 nM | 1 to 3.16 nM | 3.16 nM
CC[C@@]1(C)C(=O)Nc2nccc(-c3cc(C(C)(F)F)cc(N4CCN[C@@H](C)C4)n3)c21 (single isomer, unassigned) [Example 200] | 27 | C (a ratio of between 20 and 30) | 31.6 to 100 nM | 79.4 nM | 3.16 to 10 nM | 5.01 nM
C[C@H]1CNCCN1c1cc(C(F)(F)F)cc(-c2ccnc3c2C(C)(C)C(=O)N3)n1 [Example 101] | 12 | D (a ratio of between 10 and 20) | 31.6 to 100 nM | 100 nM | 3.16 to 10 nM | 6.31 nM
CCC1(O)C(=O)Nc2nccc(-c3cc(C(F)(F)F)cc(N4CCNC[C@H]4C)n3)c21 (stereo partly drawn) [Example 131] | 6 | E (a ratio of between 5 and 10) | 31.6 to 100 nM | 39.8 nM | 3.16 to 10 nM | 3.98 nM
CC1(C)C(=O)Nc2ncc(Br)c(-c3cc(F)cc(N4CCNCC4)c3)c21 [Example 69] | 1 | F (a ratio of between 1 and 5) | 316 to 1000 nM | 398 nM | 31.6 to 100 nM | 39.8 nM
O=C1Nc2nccc(-c3cc(F)cc(N4CCNCC4)c3)c2C12CCC2 [Example 35] | 3 | F (a ratio of between 1 and 5) | 316 to 1000 nM | 398 nM | 31.6 to 100 nM | 39.8 nM
C[C@H]1CNCCCN1c1cc(C(F)(F)F)cc(-c2ccnc3c2C(C)(C)C(=O)N3)n1 [Example 189] | 16 | D (a ratio of between 10 and 20) | 100 to 316 nM | 251 nM | 3.16 to 10 nM | 5.01 nM
CC1(C)C(=O)Nc2nccc(-c3cc(Cl)cc(N4CCNCC4)c3)c21 [Example 40] | 4 | F (a ratio of between 1 and 5) | 316 to 1000 nM | 398 nM | 31.6 to 100 nM | 31.6 nM
CC[C@@]1(C)C(=O)Nc2nccc(-c3cc(C(F)(F)F)cc(N4CCNC[C@H]4C)n3)c21 (single isomer, unassigned) [Example 198] | 30 | C (a ratio of between 20 and 30) | 31.6 to 100 nM | 63.1 nM | 3.16 to 10 nM | 3.98 nM
CCC1(C)C(=O)Nc2nccc(-c3cc(C(F)(F)F)cc(N4CCN[C@@H](C)C4)n3)c21 (stereo partly drawn) [Example 114] | 13 | D (a ratio of between 10 and 20) | 31.6 to 100 nM | 63.1 nM | 3.16 to 10 nM | 5.01 nM
CC1(C)C(=O)Nc2nccc(-c3cc(Cl)cc(N4CCNCC4C(F)F)n3)c21 (stereo not drawn) [Example 159] | 9 | E (a ratio of between 5 and 10) | 100 to 316 nM | 100 nM | 1 to 3.16 nM | 2 nM
CC[C@@H]1CNCCN1c1cc(C(F)(F)F)cc(-c2ccnc3c2[C@](C)(O)C(=O)N3)n1 (single isomer, unassigned) [Example 129] | 3 | F (a ratio of between 1 and 5) | 3.16 to 10 nM | 3.98 nM | 0.316 to 1 nM | 0.501 nM
CC1C(=O)Nc2nccc(-c3cccc(C(=O)N4CCNCC4)c3)c21 (stereo not drawn) [Example 27] | 1 | F (a ratio of between 1 and 5) | > 1000 nM | 10000 nM | 316 to 1000 nM | 1000 nM
C[C@@]1(O)C(=O)Nc2nccc(-c3cc(C(F)(F)F)cc(N4CCNC(C(F)F)C4)n3)c21 (single isomer, unassigned) [Example 123] | 25 | C (a ratio of between 20 and 30) | > 1000 nM | 1580 nM | 10 to 31.6 nM | 20 nM
CC[C@H]1CN(c2cc(C(F)(F)F)cc(-c3ccnc4c3C(C)(O)C(=O)N4)n2)CCN1 (stereo partly drawn) [Example 71] | 12 | D (a ratio of between 10 and 20) | 31.6 to 100 nM | 31.6 nM | 1 to 3.16 nM | 1.26 nM
